The structures appear in SMILES notation.

Our source for the EC50 values is patent publication US20140045823A1 (Neurocrine Biosciences, Inc., priority 2012, published 2014).

This test has as its target T1, human GPR119 (Homo sapiens, UniProt Q8TDV5).
T1 construct: expression vector for human GPR119 cDNA (Acc. No. NP_848566); expressed in transfected cells; Min-6/hGPR119
T1 sequence (Q8TDV5 1-335): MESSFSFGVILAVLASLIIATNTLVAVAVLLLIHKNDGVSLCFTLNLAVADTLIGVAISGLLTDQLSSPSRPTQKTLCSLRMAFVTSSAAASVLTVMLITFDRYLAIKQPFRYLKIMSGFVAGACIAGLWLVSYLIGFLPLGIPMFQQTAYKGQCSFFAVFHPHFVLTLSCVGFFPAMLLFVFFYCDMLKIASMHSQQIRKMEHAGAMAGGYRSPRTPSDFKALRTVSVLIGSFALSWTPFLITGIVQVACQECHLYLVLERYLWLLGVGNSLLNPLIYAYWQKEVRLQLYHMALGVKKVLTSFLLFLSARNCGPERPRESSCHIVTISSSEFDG
Kind of test: AlphaScreen cAMP assay in MIN6 cells stably transfected with human GPR119. The class given is cell-based. As to conditions: Min-6/hGPR119 cells, 45 min at room temperature. The method, boiled down: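 MIN6 cells stably expressing human GPR119, seeded 10000/well and grown 24 h, were exposed to compound in pH 7.4 buffer with 0.5 mM IBMX, 0.1% BSA and 1% DMSO for 45 min at room temperature. Intracellular cAMP then measured by AlphaScreen.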
Compound `COC1CN(C(=O)Cc2ccc(-c3ncc(C(=O)N(C4CC4)C4CCN(C(=O)OC(C)(C)C)CC4)cn3)cc2)C1` [Example 216, 4-[Cyclopropyl-(2-{4-[2-(3-methoxy-azetidin-1-yl)-2-oxo-ethyl]-phenyl}-pyrimidine-5-carbonyl)-amino]-piperidine-1-carboxylic acid tert-butyl ester] showed an EC50 of 424 nM. In other words, the sub-micromolar range.
To `CC(C)(C)OC(=O)N1CCC(N(C(=O)c2cnc(-c3ccc(C(=O)N4CCOCC4)c(F)c3)nc2)C2CC2)CC1` [Example 155, 4-(Cyclopropyl-{2-[3-fluoro-4-(morpholine-4-carbonyl)-phenyl]-pyrimidine-5-carbonyl}-amino)-piperidine-1-carboxylic acid tert-butyl ester] belongs 448 nM; to `CC(C)(C)OC(=O)N1CCC(N(C(=O)c2ncn(-c3ccc(C#N)cc3F)n2)C2CC2)CC1` [Example 49, 4-{[1-(4-Cyano-2-fluoro-phenyl)-1H-[1,2,4]triazole-3-carbonyl]-cyclopropyl-amino}-piperidine-1-carboxylic acid tert-butyl ester], 149 nM.
Regarding `CC(C)(C)OC(=O)N1CCC(N(C(=O)c2cc(-c3ccc(C#N)cc3F)on2)C2CC2)CC1` [Example 39, 4-{[5-(4-Cyano-2-fluoro-phenyl)-isoxazole-3-carbonyl]-cyclopropyl-amino}-piperidine-1-carboxylic acid tert-butyl ester], the EC50 is 3 nM.
With `CN(Cc1cccnc1)C(=O)c1ccc(-c2ncc(C(=O)N(C3CC3)C3CCN(C(=O)OC(C)(C)C)CC3)cn2)cc1` [Example 197, 4-(Cyclopropyl-{2-[4-(methyl-pyridin-3-ylmethyl-carbamoyl)-phenyl]-pyrimidine-5-carbonyl}-amino)-piperidine-1-carboxylic acid tert-butyl ester], it took 169 nM to reach a half-maximal effect (EC50).
`CC(C)(C)OC(=O)N1CCC(N(C(=O)c2cnc(-c3ccc(C(=O)Nc4ccccc4)c(F)c3)nc2)C2CC2)CC1` [Example 153, 4-{Cyclopropyl-[2-(3-fluoro-4-phenylcarbamoyl-phenyl)-pyrimidine-5-carbonyl]-amino}-piperidine-1-carboxylic acid tert-butyl ester] gave an EC50 of 109 nM.
Regarding `COCC1CCCCN1C(=O)c1ccc(-c2ncc(C(=O)N(C3CC3)C3CCN(C(=O)OC(C)(C)C)CC3)cn2)cc1` (stereo not shown) [Example 182, 4-(Cyclopropyl-{2-[4-(2-methoxymethyl-piperidine-1-carbonyl)-phenyl]-pyrimidine-5-carbonyl}-amino)-piperidine-1-carboxylic acid tert-butyl ester], the EC50 amounted to 319 nM.
In turn, `COC1CN(C(=O)c2ccc(-c3ncc(C(=O)N(C4CC4)C4CCN(C(=O)OC(C)(C)C)CC4)cn3)cc2)C1` [Example 226, 4-(Cyclopropyl-{2-[4-(3-methoxy-azetidine-1-carbonyl)-phenyl]-pyrimidine-5-carbonyl}-amino)-piperidine-1-carboxylic acid tert-butyl ester] returned an EC50 of 179 nM.
As to `CCOCCNC(=O)c1ccc(-c2ncc(C(=O)N(C3CC3)C3CCN(C(=O)OC(C)(C)C)CC3)cn2)cc1F` [Example 102, 4-(Cyclopropyl-{2-[4-(2-ethoxy-ethylcarbamoyl)-3-fluoro-phenyl]-pyrimidine-5-carbonyl}-amino)-piperidine-1-carboxylic acid tert-butyl ester], the midpoint of the response, the EC50, lay at 109 nM.
On to `Cn1cc(-c2ccc(C(=O)N(C3CC3)C3CCN(C(=O)OC(C)(C)C)CC3)cn2)ccc1=O` [Example 4, 4-[Cyclopropyl-(1′-methyl-6′-oxo-1′,6′-dihydro-[2,3′]bipyridinyl-5-carbonyl)-amino]-piperidine-1-carboxylic acid tert-butyl ester], for which the EC50 was 1460 nM.
Turning to `COC[C@H]1CCCN1C(=O)c1ccc(-c2ncc(C(=O)N(C3CC3)C3CCN(C(=O)OC(C)(C)C)CC3)cn2)c(F)c1` [Example 134, 4-(Cyclopropyl-{2-[2-fluoro-4-(2-methoxymethyl-pyrrolidine-1-carbonyl)-phenyl]-pyrimidine-5-carbonyl}-amino)-piperidine-1-carboxylic acid tert-butyl ester], the EC50 was 561 nM.
Compound `CN(CC1(C)COC1)C(=O)c1ccc(-c2ncc(C(=O)N(C3CC3)C3CCN(C(=O)OC(C)(C)C)CC3)cn2)cc1` [Example 206, 4-[Cyclopropyl-(2-{4-[methyl-(3-methyl-oxetan-3-ylmethyl)-carbamoyl]-phenyl}-pyrimidine-5-carbonyl)-amino]-piperidine-1-carboxylic acid tert-butyl ester] showed an EC50 of 312 nM.
For `CO[C@@H]1CCN(C(=O)c2ccc(-c3ncc(C(=O)N(C4CC4)C4CCN(C(=O)OC(C)(C)C)CC4)cn3)cc2F)C1` [Example 118, 4-(Cyclopropyl-{2-[3-fluoro-4-(3-methoxy-pyrrolidine-1-carbonyl)-phenyl]-pyrimidine-5-carbonyl}-amino)-piperidine-1-carboxylic acid tert-butyl ester], the EC50 amounted to 129 nM.
Consider `COC(C)CN(C)C(=O)c1ccc(-c2ncc(C(=O)N(C3CC3)C3CCN(C(=O)OC(C)(C)C)CC3)cn2)cc1F` (stereo not shown) [Example 107, 4-[Cyclopropyl-(2-{3-fluoro-4-[(2-methoxy-propyl)-methyl-carbamoyl]-phenyl}-pyrimidine-5-carbonyl)-amino]-piperidine-1-carboxylic acid tert-butyl ester], for which the EC50 was 114 nM. The EC50 values of the last two compounds are within 1.5-fold of each other.
Compound `CC(C)(C)OC(=O)N1CCC(N(C(=O)c2cnc(-n3cc(CCO)cn3)nc2)C2CC2)CC1` [Example 58, 4-(Cyclopropyl-{2-[4-(2-hydroxy-ethyl)-pyrazol-1-yl]-pyrimidine-5-carbonyl}-amino)-piperidine-1-carboxylic acid tert-butyl ester] displayed an EC50 of 2200 nM.
`CC(C)(C)OC(=O)N1CCC(N(C(=O)c2cnc(-c3ccc(C(=O)NCC4CCOC4)cc3)nc2)C2CC2)CC1` (stereo not shown) [Example 237, 4-[Cyclopropyl-(2-{4-[(tetrahydro-furan-3-ylmethyl)-carbamoyl]-phenyl}-pyrimidine-5-carbonyl)-amino]-piperidine-1-carboxylic acid tert-butyl ester] had an EC50 of 408 nM.
`CC(C)(C)OC(=O)N1CCC(N(C(=O)c2cc(-c3cccc([N+](=O)[O-])c3)[nH]n2)C2CC2)CC1` [Example 64, 4-{Cyclopropyl-[5-(3-nitro-phenyl)-1H-pyrazole-3-carbonyl]-amino}-piperidine-1-carboxylic acid tert-butyl ester] registered an EC50 of 934 nM.
As to `CC(=O)NCc1ccc(-c2ncc(C(=O)N(C3CC3)C3CCN(C(=O)OC(C)(C)C)CC3)cn2)cc1` [Example 87, 4-({2-[4-(Acetylamino-methyl)-phenyl]-pyrimidine-5-carbonyl}-cyclopropyl-amino)-piperidine-1-carboxylic acid tert-buyl ester], the EC50 is 443 nM.
Compound `CN(C(=O)c1ccc(-c2ncc(C(=O)N(C3CC3)C3CCN(C(=O)OC(C)(C)C)CC3)cn2)cc1)C1CCOCC1` [Example 205, 4-[Cyclopropyl-(2-{4-[methyl-(tetrahydro-pyran-4-yl)-carbamoyl]-phenyl}-pyrimidine-5-carbonyl)-amino]-piperidine-1-carboxylic acid tert-butyl ester] showed an EC50 of 347 nM.
